Measurements reported in patent publication US8410078B2, “Composition and methods to treat cardiac diseases” (University of Connecticut, priority 2006, dated 2013).

Assays:
[1] = tested on: cardiac P2X receptor; experiment: Whole-cell voltage clamp of P2 agonist-induced current in WT ventricular myocytes; format: cell-based, mouse; conditions: for Inhibition of the 2-meSATP-induced current by P2X receptor antagonists: PPADS 100 μM, NF449 300 nM, Brilliant Blue G 5 μM, ramp −100 to +50 mV
Description: Mice displaying the CSQ model of severe cardiomyopathy and heart failure were bred and maintained by methods known in the art. The CSQ transgenic (TG) mice were originally provided by Dr. Larry Jones (Krannert Institute of Cardiology, Indiana University School of Medicine, Indiana), and developed hypertrophy followed by a lethal heart failure phenotype with death near the age of 3 months. Ventricular myocytes were obtained from 3-month old wild type (WT) and CSQ mice of either sex (26 WT, 47 TG) by an enzymatic dissociation procedure. Briefly, the hearts were rapidly excised from mice that had been anesthetized with pentobarbital and treated with 1000 Units of heparin. The aorta was cannulated and the heart perfused in a Langendorff apparatus with oxygenated (95% O2/5% CO2) Ca^2+-free solution (37° C.) for 5 minutes at a rate of 2.5 ml/min. The solution composition was: 126 mM NaCl, 4.4 mM KCl, 1.0 mM MgCl2, 18 mM NaHCO3, 11 mM Glucose, 4 mM HEPES, and 3 mM BDM (2,3-butanedione monoxime), (pH 7.3 adjusted with NaOH). Thereafter, the perfusing solution was changed to that containing 25 μM CaCl2 and liberase (70 μg/ml, Roche Molecular Biochemicals, Inc.) for 8-10 minutes. Cells were sedimented by gravity for 10-15 minutes and the pellet was resuspended in 200 μM Ca^2+-containing Tyrode's solution (containing 3 mM BDM), allowed to settle for 30 minutes at room temperature, and suspended with Tyrode's solution containing: 135 mM NaCl, 5.4 mM KCl, 1.0 mM CaCl2, 1.0 mM MgCl2, 10 mM HEPES and 10 mM dextrose (pH 7.4 adjusted with NaOH). The experiments were carried out at room temperature (22-23° C.) and were completed within 4-6 hours after myocyte isolation.
The whole cell patch-clamp technique was used for these experiments. Electrodes were prepared from borosilicate glass pipettes (1.2 mm i.d.) with a two step pulling procedure and filled with pipette solution. The pipette was connected via an Ag—AgCl wire to the head stage of an amplifier (List EPC-7, Medical Systems, Greenvale, N.Y.) controlled by a computer and Axon pClamp™ software. For voltage clamp experiments, the electrodes were filled with a solution containing: 135 mM cesium aspartate, 5 mM NaCl, 5 mM Mg2ATP, 10 mM HEPES, and 10 mM EGTA (pH 7.3 adjusted with CsOH) with or without 2 mM GDPβS. Electrode resistances were 2-4 MΩ. As soon as electrical contact was established, the superfusion medium was changed to a modified Tyrode's solution (5.4 mM KCl was omitted and 10 mM CsCl and 5 μM ouabain were added to Tyrode's solution to block K^+ currents and the Na/K pump current, respectively). In quantifying the P2 agonist-induced current, the Tyrode's solution contained the indicated concentration of each agent. In studying the effect of a P2 receptor antagonist, both agonist and antagonist were co-applied at the indicated concentrations. The voltage clamp protocol used was a ramp voltage protocol from −100 mV holding potential to +50 mV. The ramp protocol was applied to cells at 20 s intervals for 1 minute. Three current traces from −100 mV to 50 mV were averaged to construct the I-V relationship.

[2] = tested on: P2X4R Tg myocytes; experiment: Cyclic AMP enzymatic immunoassay in P2X4R Tg myocytes; format: cell-based, mouse; conditions: 10 minutes, 2-meSATP at 10 μM
Experimental: Cyclic AMP was determined with an enzymatic immuno-assay kit (EIA, Direct Biotrak EIA kit) according to manufacturer's instructions. The method has been used to estimate cAMP level in dispersed mammalian cardiac ventricular myocytes. In brief, 3-month P2X4R Tg myocytes were isolated and plated in laminin-coated 96 well plate at a density of 1000 cells/well, equilibrated for 1 hour at 37° C., incubated with either phosphate-buffered saline (pH=7.4) or 10 μM 2-meSATP for 10 minutes, and processed for acetylation and subsequent cAMP EIA. cAMP levels were normalized to proteins in each individual well.

[3] = molecular target: T1, rat 5′-ectonucleotidase (Rattus norvegicus, UniProt P21588); conditions: cited from earlier work
T1 sequence (P21588 29-551): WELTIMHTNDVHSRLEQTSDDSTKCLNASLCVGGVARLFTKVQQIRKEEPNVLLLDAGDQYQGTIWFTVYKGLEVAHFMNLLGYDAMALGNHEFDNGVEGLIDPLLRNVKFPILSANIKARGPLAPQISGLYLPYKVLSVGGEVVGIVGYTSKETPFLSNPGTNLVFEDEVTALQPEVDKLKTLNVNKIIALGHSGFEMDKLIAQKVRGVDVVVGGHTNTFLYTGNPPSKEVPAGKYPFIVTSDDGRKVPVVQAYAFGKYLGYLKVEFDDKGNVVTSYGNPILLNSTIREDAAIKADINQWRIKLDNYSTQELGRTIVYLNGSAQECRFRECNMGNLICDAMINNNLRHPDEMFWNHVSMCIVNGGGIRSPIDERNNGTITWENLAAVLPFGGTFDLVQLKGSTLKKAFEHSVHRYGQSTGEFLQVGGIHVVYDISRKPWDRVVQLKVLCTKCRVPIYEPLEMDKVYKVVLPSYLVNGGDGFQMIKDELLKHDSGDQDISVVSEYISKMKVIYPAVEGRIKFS

[4] = tested on: Binary P2X4 receptor/CSQ transgenic mice; experiment: Lifespan of binary P2X4 receptor/CSQ transgenic mice given drug in drinking water; format: in vivo, mouse; conditions: 2 mg/ml in drinking water
Experimental: Metoprolol, a beta-adrenergic receptor blocker, was dissolved in drinking water at a concentration of 2 mg/ml. Binary P2X4 receptor/CSQ transgenic mice were fed either regular drinking water (n=8 mice) or drinking water containing the metoprolol (n=8 mice). […] Because overexpression of the P2X4 receptor rescues calsequestrin mice in a similar manner to MRS2339, administration of a beta blocker such as metoprolol with MRS2339 or another P2X receptor agonist should synergistically increase lifespan.

Q: What does the source list for `CNc1nc(I)nc2c1ncn2[C@H]1C[C@H](OP(=O)(O)O)[C@]2(COP(=O)(O)O)C[C@H]12` [MRS2500, (1′R,2′S,4′S,5′S)-4-(2-iodo-6-methylamino-purin-9-yl)-1-[(phosphate)-methyl]-2-(phosphate)-bicyclo[3.1.0]hexane]?
A: Block of the current evoked by 2-meSATP ([1]; MRS2500 1 μM, 2-meSATP 3 μM, WT myocytes): could not block; Block of the current evoked by MRS2339 ([1]; data not shown): could not block

Q: For `CC(C)NCC(O)c1ccc(O)c(O)c1` (stereo not drawn) [isoproterenol], which “Intracellular cyclic AMP level” value [2] is on record?
A: 16.6 ± 1.53 pmol/mg

Q: With `CCOc1ccc(Nc2ccc(/C(=C3C=C/C(=[N+](/CC)Cc4cccc(S(=O)(=O)[O-])c4)C=C/3C)c3ccc(N(CC)Cc4cccc(S(=O)(=O)[O-])c4)cc3C)cc2)cc1.[Na+]` [Brilliant Blue G] as the compound, how does the “Inhibition of the 2-meSATP-induced current by P2X receptor antagonists” value (from here on “Inhibition”) ([1]; 2-meSATP 3 μM) read?
A: very little inhibitory effect

Q: Which Induction of current ([1]; 3 μM, myocytes with a full response to 3 μM 2-meSATP) does the source give for `CSc1nc(N)c2ncn([C@@H]3O[C@H](COP(=O)(O)OP(=O)(O)O)[C@@H](O)[C@H]3O)c2n1` [2-meSADP, 2-methylthioADP] here?
A: failed to induce any current

Q: For `Nc1ncnc2c1ncn2C1C(O)C(O)C2(COP(=O)(O)O)CC12` (stereo not drawn) [(N) methanocarba AMP], which “Rate of hydrolysis relative to the rate of hydrolysis of AMP” value [3] is on record?
A: 0.14%

Q: For `Cc1nc(N=Nc2ccc(S(=O)(=O)O)cc2S(=O)(=O)O)c(COP(=O)(O)O)c(C=O)c1O` [PPADS], which “Inhibition” value ([1]; 2-meSATP 3 μM) is on record?
A: partially inhibit

Q: Which Median lifespan [4] does the source give for `COCCc1ccc(OCC(O)CNC(C)C)cc1` (stereo not drawn) [Metoprolol] here?
A: 491 days

Q: With `O=C(Nc1cc(C(=O)Nc2ccc(S(=O)(=O)O)cc2S(=O)(=O)O)cc(C(=O)Nc2ccc(S(=O)(=O)O)cc2S(=O)(=O)O)c1)Nc1cc(C(=O)Nc2ccc(S(=O)(=O)O)cc2S(=O)(=O)O)cc(C(=O)Nc2ccc(S(=O)(=O)O)cc2S(=O)(=O)O)c1` [NF449, 4,4′,4″,4′″-[carbonylbis(imino-5,1,3-benzenetriyl-bis(carbonylimino))]tetrakis-1,3-benzenedisulfonic acid] as the compound, how does the “Inhibition” value ([1]; 2-meSATP 3 μM) read?
A: very little inhibitory effect
